# Assay results as given in patent US10822334B2, “ErbB receptor inhibitors” (Dizal (Jiangsu) Pharmaceutical Co., Ltd., priority 2018, dated 2020).
# Like-named read-outs stand apart in the source and are kept apart here.
# What was measured:
# WT HER2 = WT HER2 (Homo sapiens (Human), UniProt P04626); assay: HER2 (Y1248) phosphorylation in BT474 cells (MSD); assay type: cell-based; details: p-HER2 (Y1248)/total HER2, 4 h, read-out: HER2 WT Amplification BT474 IC50
# Method: The plates were incubated for 4 h at 37° C. with 5% CO2 and then the HER2 (Y1248) phosphorylation level of cells in each well were measured with MSD Kit (Phospho-ErbB2 ([…]) Assay Whole Cell Lysate Kit: Cat # […]-3). The assay is a electrochemiluminescent method (MESO SCALE DISCOVERY) for determining both phosphorylated and total HER2 of cells with an MSD SECTOR® Imager and then the ratio of p-HER2/total HER2 can be generated by the machine.
# BT474 cells = assay: BT474 anti-proliferation assay (MTS); assay type: cell-based; details: Homo sapiens
# Method: A compound's activity of selective inhibition for HER2 wild type amplification can be evaluated with BT474 cell line (ATCC® HTB-20™). The cell line expressed phosphorylated HER2 protein and its proliferation depended on the amplified gene, which could be used for in vitro PD and anti-proliferation assays.
# The anti-proliferation activity of compounds were determined as following procedure: The BT474 cells were sorted in 384 well plates with the DMEM medium containing 10% FBS and […] overnight and then dosed with tested compounds at a series of concentrations (30 μM, 10 μM, 3 μM, 0.3 μM, 0.1 μM, 0.03 μM, 0.01 μM, 0.001 μM) on next day. Meanwhile, another cells plate was prepared for measuring GO value on next day. The dosed plates were incubate for 72h at 37° C. with 5% CO2 and the number of viable cells in each well of GO or dosed plates were measured by MTS (CellTiter 96® AQueous One Solution Cell Proliferation Assay, Promega) endpoint. This assay is a colorimetric method for determining the number viable cells in the proliferation assay. Detection reagents (5 μl) was dispensed into per well, and the plates were incubated for 2 hrs at room temperature. Then, absorbance at 490 nm and 650 nm (reference wavelength) in each well was measured using the safile II. (Tecan). The percentage of proliferation was got from the formula: % Proliferation=100×(G3 value of sample well-Go value)/(G3 value of DMSO control-Go value). The GI50 values were further calculated as the compounds concentration required for 50% Proliferation in best-fit curves using Genedata Screener® software.
# WT EGFR = WT EGFR (Homo sapiens (Human), UniProt P00533); assay: EGFR (Y1068) phosphorylation in NCI-H838 cells (MSD); assay type: cell-based; details: p-EGFR (Y1068)/total EGFR, 4 h, hEGF stimulation
# Chain of WT EGFR (P00533 25-1210): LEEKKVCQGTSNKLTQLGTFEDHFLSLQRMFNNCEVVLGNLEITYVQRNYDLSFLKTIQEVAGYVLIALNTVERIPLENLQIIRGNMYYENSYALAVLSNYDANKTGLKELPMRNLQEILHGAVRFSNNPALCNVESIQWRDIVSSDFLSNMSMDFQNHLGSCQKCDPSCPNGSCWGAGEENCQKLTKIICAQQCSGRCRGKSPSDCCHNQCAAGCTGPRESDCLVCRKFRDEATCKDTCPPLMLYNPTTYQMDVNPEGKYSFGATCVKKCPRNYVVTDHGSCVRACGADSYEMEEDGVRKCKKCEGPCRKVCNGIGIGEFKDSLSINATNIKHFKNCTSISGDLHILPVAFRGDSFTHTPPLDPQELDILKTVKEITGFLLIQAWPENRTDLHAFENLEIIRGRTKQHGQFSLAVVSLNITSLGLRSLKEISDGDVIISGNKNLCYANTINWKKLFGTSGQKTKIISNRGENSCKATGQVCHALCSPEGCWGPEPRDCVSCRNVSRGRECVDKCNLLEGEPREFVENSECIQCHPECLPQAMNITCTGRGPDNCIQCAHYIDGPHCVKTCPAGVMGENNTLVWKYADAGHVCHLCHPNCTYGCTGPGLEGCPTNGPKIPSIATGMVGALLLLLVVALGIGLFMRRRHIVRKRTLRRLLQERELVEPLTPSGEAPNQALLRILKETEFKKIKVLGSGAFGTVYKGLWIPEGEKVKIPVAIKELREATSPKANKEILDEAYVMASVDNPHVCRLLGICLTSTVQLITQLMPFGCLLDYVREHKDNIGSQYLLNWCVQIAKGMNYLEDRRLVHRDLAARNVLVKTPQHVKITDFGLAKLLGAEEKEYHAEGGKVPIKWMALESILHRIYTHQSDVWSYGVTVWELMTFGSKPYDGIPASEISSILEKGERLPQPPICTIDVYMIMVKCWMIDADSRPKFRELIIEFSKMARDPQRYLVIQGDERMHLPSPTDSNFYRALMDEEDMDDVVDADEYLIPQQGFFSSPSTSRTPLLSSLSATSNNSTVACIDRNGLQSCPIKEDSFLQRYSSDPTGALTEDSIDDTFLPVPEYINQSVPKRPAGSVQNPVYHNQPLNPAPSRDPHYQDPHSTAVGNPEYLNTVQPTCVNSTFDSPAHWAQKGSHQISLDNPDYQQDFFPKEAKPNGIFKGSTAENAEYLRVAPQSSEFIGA
# [1] = Blood brain barrier penetration assay in rats (short oral absorption model); assay type: in vivo; details: for Kp uu: male, Han Wistar, rat, po
# Method: In vitro blood, plasma and brain binding assay was carried out with equilibrium dialysis device. Diluted blood (1:1with DPBS pH7.4), EDTA-anticoagulated plasma, and brain homogenate (1:3 with DPBS pH7.4) were spiked with 5 μM test compound (in triplicate) and dialyzed against equal volume of 150 μL 100 mM PBS buffer (pH7.4) at 37° C. for appropriate equilibration time in a slowly rotated plate. At the end of incubation, a 50 μL aliquot from the receiver side and a 5 μL from the donor chamber were taken. The 5 μL sample was further diluted with 45 μL of blank blood, plasma or brain homogenate. Paired samples were matrix-matched with either buffer or blank matrix, and mixed for 2 min, and then precipitated with 150 μL cold acetonitrile with 100 ng/mL tolbutamide as internal standard. After centrifuging at 4000 rpm for 20 min, supernatant was diluted with 0.1% formic acid aqueous solution and analyzed for LC/MS/MS (API 4000, Applied Biosystems, Foster City). Unbound fraction (fu) of test compound were calculated by the ratio of the buffer side response to the brain homogenate/plasma/blood side response, and unbound fraction (fu,bl, fu,pl and fu,br) of test compound in non-diluted blood and tissue were calculated from measured fu in homogenate and diluted blood with the following equation: fu,bl (fu,br)=(1/D)/[(1/fu−1)+1/D)]. D is dilution factor. (D equates 1 for plasma, 2 for blood, and 4 for brain)
# A Short oral absorption (SOA) model is an in-vivo screening model to identify brain penetration of a compound. Six male Han Wistar rats purchased from Beijing Vital River were orally dosed with the compound. At predefined time point post-dose, cerebral spinal fluid (CSF) was collected from cisterna magna, and blood samples (>60 μL/time point/each site) were collected via cardiac puncture, into separate EDTA anti-coagulated tubes, and then immediately diluted with 3-fold volume of water for blood samples, or centrifuged at 4000 g for 10 min to obtain plasma. Brain tissue was harvested and homogenized in 3× volume of 100 mM phosphate buffered saline (pH7.4). All samples were stored at ˜−70° C. prior to LC/MS/MS analysis.
# Standards were prepared by spiking blank plasma, blood, brain homogenate and artificial CSF. Homogenized brain tissue along with blood/plasma samples were precipitated by adding 3-fold volume of cold acetonitrile containing internal standard, and 10 μL of CSF samples were precipitated with 100 μL of cold acetonitrile containing internal standard. After 2 min vortex and 5 min centrifugation at 14,000 rpm, supernatant was analyzed by LC/MS/MS (API 4000, Applied Biosystems, Foster City). Two sets of standard curves were run at the beginning and end of each batch from blood sample analysis. For brain and CSF samples, one standard curve was analyzed along with test samples.
# Total brain levels, expressed as brain/blood ratio (Kp,brain) were measured by AUC(brain)/AUC(blood or plasma) in rodents after oral administration. Similarly, CSF levels represented by a ratio of CSF/blood exposure (Kp,CSF) were determined by AUC(CSF)/AUC(blood or plasma). Free fraction of test compound in biological matrix was determined by in vitro blood and brain binding assay.
# Kp,uubrain and Kp,uu CSF was calculated by the following equation: Kp,uu brain=AUC(brain)/AUC(blood or plasma)×(fubrain/fublood/plasma) and Kp,uu CSF=AUC(CSF)/AUC(blood or plasma)×(1/fublood/plasma).
# [2] = BT-474, BT474 cells, 72 h, MTS, read-out: HER2 WT Amplification BT474 GI50
# [3] = CSF, male Han Wistar rats, oral, AUC(CSF)/AUC(blood or plasma) x 1/fu, read-out: Kp,uu CSF
# [4] = brain, male Han Wistar rats, oral, AUC(brain)/AUC(blood or plasma) x fu ratio, read-out: Kp,uu brain
# Chain of WT HER2 (P04626 23-1255): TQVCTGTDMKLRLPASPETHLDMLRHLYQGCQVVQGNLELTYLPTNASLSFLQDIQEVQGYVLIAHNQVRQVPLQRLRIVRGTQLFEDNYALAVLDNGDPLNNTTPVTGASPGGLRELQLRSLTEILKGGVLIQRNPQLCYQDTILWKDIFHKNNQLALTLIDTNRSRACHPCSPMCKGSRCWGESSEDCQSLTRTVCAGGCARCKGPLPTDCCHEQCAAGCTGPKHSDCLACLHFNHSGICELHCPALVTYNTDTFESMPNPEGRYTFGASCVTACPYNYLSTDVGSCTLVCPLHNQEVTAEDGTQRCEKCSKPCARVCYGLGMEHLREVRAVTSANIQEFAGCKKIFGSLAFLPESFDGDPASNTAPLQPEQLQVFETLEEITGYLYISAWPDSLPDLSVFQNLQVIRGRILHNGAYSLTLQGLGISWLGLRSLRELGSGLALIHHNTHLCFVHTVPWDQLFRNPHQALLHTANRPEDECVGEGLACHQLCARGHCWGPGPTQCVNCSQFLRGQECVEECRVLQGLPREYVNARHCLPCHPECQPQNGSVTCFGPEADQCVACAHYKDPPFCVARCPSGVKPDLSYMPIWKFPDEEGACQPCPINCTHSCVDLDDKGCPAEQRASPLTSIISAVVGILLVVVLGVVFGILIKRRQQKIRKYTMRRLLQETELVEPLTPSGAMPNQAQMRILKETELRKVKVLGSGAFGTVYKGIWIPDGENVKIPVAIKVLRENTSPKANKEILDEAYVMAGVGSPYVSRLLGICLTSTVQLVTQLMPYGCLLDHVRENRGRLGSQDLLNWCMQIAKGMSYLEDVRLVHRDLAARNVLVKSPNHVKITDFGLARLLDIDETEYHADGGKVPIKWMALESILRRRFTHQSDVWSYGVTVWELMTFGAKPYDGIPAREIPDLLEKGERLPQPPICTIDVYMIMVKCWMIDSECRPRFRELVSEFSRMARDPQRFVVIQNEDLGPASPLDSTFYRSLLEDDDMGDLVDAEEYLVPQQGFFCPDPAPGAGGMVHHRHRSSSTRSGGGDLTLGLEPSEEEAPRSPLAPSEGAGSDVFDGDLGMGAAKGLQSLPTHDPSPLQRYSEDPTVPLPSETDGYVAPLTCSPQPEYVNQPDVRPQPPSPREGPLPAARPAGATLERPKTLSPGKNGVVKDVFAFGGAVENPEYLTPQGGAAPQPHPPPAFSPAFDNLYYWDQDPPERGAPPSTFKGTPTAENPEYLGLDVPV
smiles,measurement,setting,value
"[2H]C([2H])([2H])N1CC[C@H](Oc2cccc3ncnc(Nc4ccc(Oc5ccn6ncnc6c5)c(C)c4)c23)C[C@@H]1C(F)(F)F (racemic) [Compound 25, (±)-N-(4-([1,2,4]triazolo[1,5-a]pyridin-7-yloxy)-3-methylphenyl)-5-(((2R,4S)-1-(methyl-d3)-2-(trifluoromethyl)piperidin-4-yl)oxy)quinazolin-4-amine]",IC50,WT HER2,16.8 nM
same,GI50,BT474 cells; [2],47.2 nM
same,IC50,WT EGFR,> 10000 nM
same,Kp uu,[1]; [3],1.92
same,Kp uu,[1]; [4],0.11
"[2H]C1(Oc2cc(OC)cc3ncnc(Nc4ccc(Oc5ccn6ncnc6c5)c(C)c4)c23)CCN(C)CC1(F)F (racemic) [Compound 27, (±)-N-(4-([1,2,4]triazolo[1,5-a]pyridin-7-yloxy)-3-methylphenyl)-5-((3,3-difluoro-1-methylpiperidin-4-yl-4-d)oxy)-7-methoxyquinazolin-4-amine]",IC50,WT HER2,10.3 nM
same,GI50,BT474 cells; [2],22.1 nM
same,IC50,WT EGFR,5130 nM
same,Kp uu,[1]; [3],0.52
same,Kp uu,[1]; [4],0.1
"Cc1cc(Nc2ncnc3cccc(OC4CCN(C)CC4(F)F)c23)ccc1Oc1ccn2ncnc2c1 (single isomer, unassigned) [Compound 1, N-(4-([1,2,4]triazolo[1,5-a]pyridin-7-yloxy)-3-methylphenyl)-5-((3,3-difluoro-1-methylpiperidin-4-yl)oxy)quinazolin-4-amine]",IC50,WT HER2,6.86 nM
same,GI50,BT474 cells; [2],24.2 ± 24 nM
same,IC50,WT EGFR,> 3000 nM
same,Kp uu,[1]; [3],1.44
same,Kp uu,[1]; [4],0.23
"COc1cc(O[C@H]2CCN(C)CC2(F)F)c2c(Nc3ccc(Oc4ccn5ncnc5c4)c(C)c3)ncnc2c1 (single isomer, unassigned) [Compound 6]",IC50,WT HER2,19.6 ± 8.76 nM
same,GI50,BT474 cells; [2],18.7 ± 9.16 nM
same,IC50,WT EGFR,3290 ± 1350 nM
same,Kp uu,[1]; [3],0.56
same,Kp uu,[1]; [4],0.18
"COc1cc(OC2CCN(C)CC2(F)F)c2c(Nc3cc(C)c(Oc4ccn5ncnc5c4)cc3F)ncnc2c1 (single isomer, unassigned) [Compound 14]",IC50,WT HER2,19.7 nM
same,GI50,BT474 cells; [2],26.8 ± 11.5 nM
same,IC50,WT EGFR,1390 nM
same,Kp uu,[1]; [3],0.24
same,Kp uu,[1]; [4],0.04
"Cc1cc(Nc2ncnc3cc(F)cc(OC4CCN(C)CC4(F)F)c23)ccc1Oc1ccn2ncnc2c1 (single isomer, unassigned) [Compound 17]",IC50,WT HER2,44 nM
same,GI50,BT474 cells; [2],126 ± 9.01 nM
same,IC50,WT EGFR,> 3000 nM
same,Kp uu,[1]; [3],1.02
same,Kp uu,[1]; [4],0.07
"Cc1cc(Nc2ncnc3cccc(OC4CC(C)N(C)CC4(F)F)c23)ccc1Oc1ccn2ncnc2c1 (single isomer, unassigned) [Compound 19]",IC50,WT HER2,9.56 ± 3.13 nM
same,GI50,BT474 cells; [2],11.5 nM
same,IC50,WT EGFR,> 10000 nM
same,Kp uu,[1]; [3],0.4
same,Kp uu,[1]; [4],0.1
"[2H]C([2H])([2H])N1CCC(Oc2cccc3ncnc(Nc4ccc(Oc5ccn6ncnc6c5)c(C)c4)c23)C(F)(F)C1 (single isomer, unassigned) [Compound 24, N-(4-([1,2,4]triazolo[1,5-a]pyridin-7-yloxy)-3-methylphenyl)-5-((3,3-difluoro-1-(methyl-d3)piperidin-4-yl)oxy)quinazolin-4-amine]",IC50,WT HER2,9.38 nM
same,GI50,BT474 cells; [2],50.8 nM
same,IC50,WT EGFR,> 10000 nM
same,Kp uu,[1]; [3],1.44
same,Kp uu,[1]; [4],0.23
"[2H]C([2H])([2H])N1CCC([2H])(Oc2cc(OC)cc3ncnc(Nc4ccc(Oc5ccn6ncnc6c5)c(C)c4)c23)C(F)(F)C1 (single isomer, unassigned) [Compound 28]",IC50,WT HER2,22.4 nM
same,GI50,BT474 cells; [2],35.8 nM
same,IC50,WT EGFR,5220 nM
same,Kp uu,[1]; [3],0.52
same,Kp uu,[1]; [4],0.11
"COc1cc(O[C@H]2CCNCC2(F)F)c2c(Nc3ccc(Oc4ccn5ncnc5c4)c(C)c3)ncnc2c1 [Compound 16, (S)-N-(4-([1,2,4]triazolo[1,5-a]pyridin-7-yloxy)-3-methylphenyl)-5-((3,3-difluoropiperidin-4-yl)oxy)-7-methoxyquinazolin-4-amine]",IC50,WT HER2,10.6 ± 2.4 nM
same,GI50,BT474 cells; [2],14.3 ± 13.6 nM
same,IC50,WT EGFR,3060 ± 80.2 nM
same,Kp uu,[1]; [3],0.11
same,Kp uu,[1]; [4],0.03
"Cc1cc(Nc2ncnc3cccc(O[C@@H]4C[C@H]5CC[C@@H](C4)N5C)c23)ccc1Oc1ccn2ncnc2c1 [Compound 20, N-(4-([1,2,4]triazolo[1,5-a]pyridin-7-yloxy)-3-methylphenyl)-5-(((1R,3s,5S)-8-methyl-8-azabicyclo[3.2.1]octan-3-yl)oxy)quinazolin-4-amine]",IC50,WT HER2,12.6 nM
same,GI50,BT474 cells; [2],41 ± 1.55 nM
same,IC50,WT EGFR,> 10000 nM
same,Kp uu,"[1]; in vivo, Kp,uu CSF",0.07
same,Kp uu,"[1]; in vivo, Kp,uu brain",0.08
"CCOc1cc2ncc(C#N)c(Nc3ccc(OCc4ccccn4)c(Cl)c3)c2cc1NC(=O)/C=C/CN(C)C [Neratinib, reference compound]",GI50,"BT474 cells; BT-474, 72 h, read-out: HER2 WT Amplification BT474 GI50 (nM)",0.71 ± 0.08 nM
same,"Kp,uu CSF","[1]; male Han Wistar rats, oral, AUC(CSF)/AUC(blood or plasma) x 1/fu",AUC(CSF) below
same,"Kp,uu brain","[1]; male Han Wistar rats, oral, AUC(brain)/AUC(blood or plasma) x fu ratio",AUC(brain) below
